Measurements taken from patent US12336995B2, “Combination therapies” (Mirati Therapeutics, Inc., priority 2018, dated 2025).

Legend:
KYSE-410 cells = assay: In vivo tumor model, Compound 478 and Afatinib (Table 4b); details: KYSE-410, Afatinib 12.5 mg/kg, single or combined
Procedure: (§1) Immunocompromised nude/nude mice were inoculated in the right hind flank with cells or patient derived tumor samples harboring a KRas G12C mutation. […] The first group was administered vehicle only. […] The fourth group was administered the single agent dose of the KRas G12C inhibitor in combination with the single agent dose of the pan ErbB family inhibitor. […] Tumor volumes were measured using a caliper every two-three days and tumor volumes were calculated by the formula: 0.5×(Length×Width)^2.
(§2) Tumor volumes were measured at pre-specified days set forth below.

LU6405 cells (PDX model) = assay: In vivo PDX model, Compound 478 and Afatinib (Table 4c); details: LU6405, Afatinib 12.5 mg/kg, single or combined
Procedure: as §1, §2

H2122 cells = assay: In vivo tumor model, Compound 478 and Afatinib (Table 4a); details: for Average Tumor Volumes: H2122, Afatinib 12.5 mg/kg, single or combined
Procedure: as §1, §2

[1] = Day 11 post implant (treatment start), p.o. daily: Compound 478 100 mg/kg
[2] = Day 14 post implant, p.o. daily from Day 11: Compound 478 100 mg/kg
[3] = Day 18 post implant, p.o. daily from Day 11: Compound 478 100 mg/kg
[4] = Day 21 post implant, p.o. daily from Day 11: Compound 478 100 mg/kg
[5] = Day 25 post implant, p.o. daily from Day 11: Compound 478 100 mg/kg
[6] = Day 28 post implant, p.o. daily from Day 11: Compound 478 100 mg/kg
[7] = Day 32 post implant, p.o. daily from Day 11: Compound 478 100 mg/kg
[8] = Day 34 post implant, p.o. daily from Day 11: Compound 478 100 mg/kg

Question: How did the “Average Tumor Volumes” value (KYSE-410 cells; [1]) turn out when CN(C)C/C=C/C(=O)Nc1cc2c(Nc3ccc(F)c(Cl)c3)ncnc2cc1OC1CCOC1 (centres unmarked) [Afatinib, (E)-N-(4-((3-chloro-4-fluorophenyl)amino)-7-((tetrahydrofuran-3-yl)oxy)quinazolin-6-yl)-4-(dimethylamino)but-2-enamide, reference compound] was run?
Answer: 311.84 mm^3

Question: What about the “Average Tumor Volumes” value (KYSE-410 cells; [2]) of the same compound?
Answer: 199.20 mm^3

Question: What about the “Average Tumor Volumes” value (KYSE-410 cells; Day 16 post implant, p.o. daily from Day 11: Compound 478 100 mg/kg) of the same compound?
Answer: 135.30 mm^3

Question: And the “Average Tumor Volumes” value (KYSE-410 cells; [3])?
Answer: 114.40 mm^3

Question: What about the “Average Tumor Volumes” value (KYSE-410 cells; [4]) of the same compound?
Answer: 114.08 mm^3

Question: What about the “Average Tumor Volumes” value (KYSE-410 cells; Day 23 post implant, p.o. daily from Day 11: Compound 478 100 mg/kg) of the same compound?
Answer: 132.92 mm^3

Question: What about the “Average Tumor Volumes” value (KYSE-410 cells; [5]) of the same compound?
Answer: 141.90 mm^3

Question: And the “Average Tumor Volumes” value (KYSE-410 cells; [6])?
Answer: 144.36 mm^3

Question: And the “Average Tumor Volumes” value (KYSE-410 cells; Day 30 post implant, p.o. daily from Day 11: Compound 478 100 mg/kg)?
Answer: 166.46 mm^3

Question: And the “Average Tumor Volumes” value (KYSE-410 cells; [7])?
Answer: 163.92 mm^3

Question: And the “Average Tumor Volumes” value (KYSE-410 cells; Day 35 post implant, p.o. daily from Day 11: Compound 478 100 mg/kg)?
Answer: 181.68 mm^3

Question: And the “Average Tumor Volumes” value (KYSE-410 cells; Day 37 post implant, p.o. daily from Day 11: Compound 478 100 mg/kg)?
Answer: 198.34 mm^3

Question: And the “Average Tumor Volumes” value (LU6405 cells (PDX model); [1])?
Answer: 257.48 mm^3

Question: What about the “Average Tumor Volumes” value (LU6405 cells (PDX model); [2]) of the same compound?
Answer: 371.98 mm^3

Question: And the “Average Tumor Volumes” value (LU6405 cells (PDX model); [3])?
Answer: 585.54 mm^3

Question: What about the “Average Tumor Volumes” value (LU6405 cells (PDX model); [4]) of the same compound?
Answer: 775.75 mm^3

Question: And the “Average Tumor Volumes” value (LU6405 cells (PDX model); [5])?
Answer: 1056.23 mm^3

Question: What about the “Average Tumor Volumes” value (LU6405 cells (PDX model); [6]) of the same compound?
Answer: 1197.31 mm^3

Question: What about the “Average Tumor Volumes” value (LU6405 cells (PDX model); [7]) of the same compound?
Answer: 1540.74 mm^3

Question: And the “Average Tumor Volumes” value (LU6405 cells (PDX model); [8])?
Answer: 1655.49 mm^3

Question: What about the “Average Tumor Volumes” value (H2122 cells; [1]) of the same compound?
Answer: 324.86 mm^3

Question: What about the “Average Tumor Volumes” value (H2122 cells; Day 13 post implant, p.o. daily from Day 11: Compound 478 100 mg/kg) of the same compound?
Answer: 429.76 mm^3

Question: What about the “Average Tumor Volumes” value (H2122 cells; Day 15 post implant, p.o. daily from Day 11: Compound 478 100 mg/kg) of the same compound?
Answer: 573.36 mm^3

Question: And the “Average Tumor Volumes” value (H2122 cells; [3])?
Answer: 694.70 mm^3

Question: And the “Average Tumor Volumes” value (H2122 cells; Day 20 post implant, p.o. daily from Day 11: Compound 478 100 mg/kg)?
Answer: 850.85 mm^3

Question: And the “Average Tumor Volumes” value (H2122 cells; Day 22 post implant, p.o. daily from Day 11: Compound 478 100 mg/kg)?
Answer: 931.53 mm^3

Question: And the “Average Tumor Volumes” value (H2122 cells; [5])?
Answer: 1153.42 mm^3

Question: And the “Average Tumor Volumes” value (H2122 cells; Day 27 post implant, p.o. daily from Day 11: Compound 478 100 mg/kg)?
Answer: 1307.50 mm^3

Question: What about the “Average Tumor Volumes” value (H2122 cells; Day 29 post implant, p.o. daily from Day 11: Compound 478 100 mg/kg) of the same compound?
Answer: 1137.09 mm^3

Question: What about the “Average Tumor Volumes” value (H2122 cells; [7]) of the same compound?
Answer: 1403.33 mm^3

Question: What about the “Average Tumor Volumes” value (H2122 cells; [8]) of the same compound?
Answer: 1830.13 mm^3

Question: What about the tumor growth inhibition (H2122 cells; H2122 tumor bearing mice, Day 22 (Treatment Day 10), single agent, Compound 478 100 mg/kg, afatinib 12.5 mg/kg p.o. daily) of the same compound?
Answer: 41%
